Assays:
[1] = tested on: antibodies in sera from SARS patients (sera 1a, 1b, 2, 6, 37, 62, London, SARS-yellow, SARS-green); type: binding, human; design: Binding of serum 6 to linear peptides of protein X1 of SARS-CoV Urbani / Binding of serum 37 to linear peptides of protein X1 of SARS-CoV Urbani / Binding of serum 6 to looped/cyclic peptide (PEPSCAN-ELISA) / Binding of serum 37 to looped/cyclic peptide (PEPSCAN-ELISA) / Binding of serum 37 to looped/cyclic peptides of protein X1 of SARS-CoV Urbani / Binding of serum 6 to linear peptides of protein X2 / Binding of serum 37 to linear peptides of protein X2 / Binding of serum 37 to looped/cyclic peptides of protein X2 of SARS-CoV Urbani / Binding of serum 6 to linear peptides of protein M of SARS-CoV Urbani / Binding of serum 37 to linear peptides of protein M of SARS-CoV Urbani / Binding of serum 6 to looped/cyclic peptides of protein M of SARS-CoV Urbani / Binding of serum 37 to looped/cyclic peptides of protein M of SARS-CoV Urbani / Binding of serum 6 to linear peptides of protein X3 of SARS-CoV Urbani / Binding of serum 37 to linear peptides of protein X3 of SARS-CoV Urbani / Binding of serum 37 to looped/cyclic peptides of protein X3 of SARS-CoV Urbani / Binding of serum 6 to linear peptides of protein X4 of SARS-CoV Urbani / Binding of serum 37 to linear peptides of protein X4 of SARS-CoV Urbani / Binding of serum 37 to looped/cyclic peptides of protein X4 of SARS-CoV Urbani / Binding of serum 6 to linear peptides of protein X5 of SARS-CoV Urbani / Binding of serum 37 to linear peptides of protein X5 of SARS-CoV Urbani / Binding of serum 37 to looped/cyclic peptides of protein X5 of SARS-CoV Urbani / Binding of serum 6 to linear peptides of protein N of SARS-CoV Urbani / Binding of serum 37 to linear peptides of protein N of SARS-CoV Urbani / Binding of serum 6 to linear peptide (PEPSCAN-ELISA) / Binding of serum 1a to looped/cyclic peptides of protein N of SARS-CoV Urbani / Binding of serum 1b to looped/cyclic peptides of protein N of SARS-CoV Urbani / Binding of serum 2 to looped/cyclic peptides of protein N of SARS-CoV Urbani / Binding of serum 6 to looped/cyclic peptides of protein N of SARS-CoV Urbani / Binding of serum 37 to looped/cyclic peptides of protein N of SARS-CoV Urbani / Binding of serum 62 to looped/cyclic peptides of protein N of SARS-CoV Urbani / Binding of serum London to looped/cyclic peptides of protein N of SARS-CoV Urbani / Binding of serum SARS-green to looped/cyclic peptides of protein N of SARS-CoV Urbani: unit not given here
[2] = tested on: control sera (pooled serum of ten healthy LUMC hospital workers; commercial negative donor pooled serum from the Dutch bloodbank); type: binding, human; design: Binding of Control serum LUMC to linear peptides / Binding of Control serum Blood-bank to linear peptides / Binding of Control serum LUMC to looped peptides / Binding of Control Serum Blood-Bank to Looped peptides / Binding of Control serum LUMC to linear peptides of the protein M of SARS-CoV Urbani / Binding of Control serum Blood-bank to linear peptides of the protein M of SARS-CoV Urbani / Binding of Control serum LUMC to looped peptides of the protein M of SARS-CoV Urbani / Binding of Control Serum Blood-Bank to Looped peptides of the protein M of SARS-CoV Urbani: unit not given here
[3] = tested on: rabbit serum obtained by immunizing a rabbit with the SARS-CoV strain Frankfurt 1; type: binding; design: Binding of a rabbit serum to linear peptides / Binding of a rabbit serum to looped peptides / Rabbit serum linear peptides / Rabbit serum looped peptides / Binding of a rabbit serum to linear peptides of protein N of SARS-CoV Urbani (Rabbit serum linear peptides) / Binding of a rabbit serum to looped/cyclic peptides of protein N of SARS-CoV Urbani (Rabbit serum looped peptides): unit not given here
[4] = tested on: recombinant human anti-SARS-CoV antibody 03-018; type: binding; design: Binding of antibody 03-018 to linear peptides of the N protein of SARS-CoV Urbani / Binding of antibody 03-018 to looped/cyclic peptides of the N protein of SARS-CoV Urbani: unit not given here

Sequence | Binding of serum 1a to looped/cyclic peptides of protein N of SARS-CoV Urbani [1] | Binding of serum 1b to looped/cyclic peptides of protein N of SARS-CoV Urbani [1] | Binding of serum 2 to looped/cyclic peptides of protein N of SARS-CoV Urbani [1] | Binding of serum 6 to looped/cyclic peptides of protein N of SARS-CoV Urbani [1] | Binding of serum 37 to looped/cyclic peptides of protein N of SARS-CoV Urbani [1] | Binding of serum 62 to looped/cyclic peptides of protein N of SARS-CoV Urbani [1] | Binding of serum London to looped/cyclic peptides of protein N of SARS-CoV Urbani [1] | Binding of serum SARS-green to looped/cyclic peptides of protein N of SARS-CoV Urbani [1] | Binding of serum SARS-yellow to looped/cyclic peptides of protein N of SARS-CoV Urbani [1] | Binding of Control Serum Blood-Bank to Looped peptides [2] | Binding of Control serum Blood-bank to linear peptides [2] | Binding of Control serum LUMC to linear peptides [2] | Binding of Control serum LUMC to looped peptides [2] | Binding of a rabbit serum to linear peptides of protein N of SARS-CoV Urbani (Rabbit serum linear peptides) [3] | Binding of a rabbit serum to looped/cyclic peptides of protein N of SARS-CoV Urbani (Rabbit serum looped peptides) [3] | Binding of antibody 03-018 to linear peptides of the N protein of SARS-CoV Urbani [4] | Binding of antibody 03-018 to looped/cyclic peptides of the N protein of SARS-CoV Urbani [4] | also measured
GVPINTNSGPDDQIG | 0.3 | 0.2 | 0.2 | 0.1 | 0.5 | 0.3 | 0.3 | 0.3 | 0.2 | 0.4 | 0.7 | 0.7 | 0.4 | 0.1 | 0.2 | 0.1 | 0.2 | Binding of serum 1a to linear peptides of protein N of SARS-CoV Urbani [1]: 0.3; Binding of serum 1b to linear peptides of protein N of SARS-CoV Urbani [1]: 0.1; Binding of serum 2 to linear peptides of protein N of SARS-CoV Urbani [1]: 0.2; Binding of serum 6 to linear peptides of protein N of SARS-CoV Urbani [1]: 0.2; Binding of serum 37 to linear peptides of protein N of SARS-CoV Urbani [1]: 0.8; Binding of serum 62 to linear peptides of protein N of SARS-CoV Urbani [1]: 0.6; Binding of serum London to linear peptides of protein N of SARS-CoV Urbani [1]: 0.5; Binding of serum SARS-green to linear peptides of protein N of SARS-CoV Urbani [1]: 0.5; Binding of serum SARS-yellow to linear peptides of protein N of SARS-CoV Urbani [1]: 0.5
FYAEGSRGGSQASSR | 0.3 | 0.2 | 0.4 | 0.3 | 0.6 | 0.6 | 0.4 | 0.4 | 0.3 | 0.6 | 0.8 | 0.7 | 0.8 | 0.3 | 0.4 | 0.1 | 0.1 | Binding of serum 1a to linear peptide (PEPSCAN-ELISA) [1]: 0.3; Binding of serum 1b to linear peptide (PEPSCAN-ELISA) [1]: 0.2; Binding of serum 2 to linear peptide (PEPSCAN-ELISA) [1]: 0.2; Binding of serum 6 to linear peptide (PEPSCAN-ELISA) [1]: 0.3; Binding of serum 37 to linear peptide (PEPSCAN-ELISA) [1]: 0.7; Binding of serum 62 to linear peptide (PEPSCAN-ELISA) [1]: 0.8; Binding of serum London to linear peptide (PEPSCAN-ELISA) [1]: 0.5; Binding of serum SARS-green to linear peptide (PEPSCAN-ELISA) [1]: 0.4; Binding of serum SARS-yellow to linear peptide (PEPSCAN-ELISA) [1]: 0.6
